Results reported in article PMC3477287 (ACS chemical biology, 2012).

Target: MbtA (Mycobacterium tuberculosis, UniProt P71716)
Assay: […]
Type: biochemical

MbtA, sequence (P71716 whole entry): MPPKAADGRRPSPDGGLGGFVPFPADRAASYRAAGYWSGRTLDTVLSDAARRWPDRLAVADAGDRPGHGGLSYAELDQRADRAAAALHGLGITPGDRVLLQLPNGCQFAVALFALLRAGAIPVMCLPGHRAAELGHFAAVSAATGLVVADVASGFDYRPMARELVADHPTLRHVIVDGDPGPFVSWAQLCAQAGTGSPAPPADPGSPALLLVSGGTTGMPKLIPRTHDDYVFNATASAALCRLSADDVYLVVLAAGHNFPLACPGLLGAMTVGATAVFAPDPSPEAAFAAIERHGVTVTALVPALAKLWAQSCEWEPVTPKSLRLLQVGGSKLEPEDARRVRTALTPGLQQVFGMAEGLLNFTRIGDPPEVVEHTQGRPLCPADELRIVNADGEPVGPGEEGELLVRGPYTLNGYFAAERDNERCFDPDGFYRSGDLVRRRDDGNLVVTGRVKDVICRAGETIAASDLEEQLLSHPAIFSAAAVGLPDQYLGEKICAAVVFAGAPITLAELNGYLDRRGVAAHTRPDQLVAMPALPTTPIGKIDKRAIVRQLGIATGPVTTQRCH

Sal-AMS ABP [compound 6]
Ki: 940 pM
